# Laboratory results taken from patent US20060223996A1, “IL-12 modulatory compounds” (Synta Pharmaceuticals Corp., priority 2004, published 2006).
# Test system: IL-12
# Experiment: Human in vitro assay: inhibition of IL-12 production in IFNγ/LPS- or IFNγ/SAC-stimulated human PBMC or THP-1 cells (ELISA)
# Type: cell-based
# Details: read-out: IC50 Range (representative in vitro IC50 data)
# Outline: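 PBMC (5×10^5 cells/well) primed with IFNγ 30 U/mL for 22 h then LPS 1 μg/mL, or IFNγ 100 U/mL then SAC 0.01%; THP-1 primed with IFNγ 100 U/mL for 22 h then SAC 0.025%, with compound in 0.25% DMSO. Supernatant IL-12 p70/p40 measured by sandwich ELISA after 18 h; IC50 derived; viability by MTS.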
row,IC50,SMILES
1,≥ 1000 nM,"O=C(Nc1ccc2c(C(F)(F)F)cc(=O)oc2c1)c1cc(NCCN2CCOCC2)nc(N2CCOCC2)n1 [Compound 192, 2-morpholino-6-(2-morpholinoethylamino)-N-(2-oxo-4-(trifluoromethyl)-2H-chromen-7-yl)pyrimidine-4-carboxamide]"
2,< 1000 nM,"CON(C)c1cc(C(=O)Nc2ccc3[nH]c(C)c(C)c3c2)nc(N2CCOCC2)n1 [Compound 193, N-(2,3-dimethyl-1H-indol-5-yl)-6-(methoxy(methyl)amino)-2-morpholinopyrimidine-4-carboxamide]"
3,< 1000 nM,"Cc1[nH]c2ccc(NC(=O)c3cc(NCCO)nc(N4CCOCC4)n3)cc2c1C [Compound 194, N-(2,3-dimethyl-1H-indol-5-yl)-6-(2-hydroxyethylamino)-2-morpholinopyrimidine-4-carboxamide]"
4,< 1000 nM,"CON(CCN1CCOCC1)c1cc(C(=O)Nc2ccc3[nH]c(C)c(C)c3c2)nc(N2CCOCC2)n1 [Compound 195, N-(2,3-dimethyl-1H-indol-5-yl)-6-(methoxy(2-morpholinoethyl)amino)-2-morpholinopyrimidine-4-carboxamide]"
5,< 1000 nM,"CONc1cc(C(=O)Nc2cccc(N(C)C)c2)nc(N2CCOCC2)n1 [Compound 196, N-(3-(dimethylamino)phenyl)-6-(methoxyamino)-2-morpholinopyrimidine-4-carboxamide]"
6,≥ 1000 nM,"O=C1Cc2cc(NC(=O)c3cc(OCCN4CCOCC4)nc(N4CCOCC4)n3)ccc2N1 [Compound 197, 2-morpholino-6-(2-morpholinoethoxy)-N-(2-oxoindolin-5-yl)pyrimidine-4-carboxamide]"
7,≥ 1000 nM,"CCN(CC)C(=O)Nc1cccc(NC(=O)c2cc(OCCN3CCOCC3)nc(N3CCOCC3)n2)c1 [Compound 198, N-(3-(3,3-diethylureido)phenyl)-2-morpholino-6-(2-morpholinoethoxy)pyrimidine-4-carboxamide]"
8,≥ 1000 nM,"O=C1COc2ccc(NC(=O)c3cc(OCCN4CCOCC4)nc(N4CCOCC4)n3)cc2N1 [Compound 199, 2-morpholino-6-(2-morpholinoethoxy)-N-(3-oxo-3,4-dihydro-2H-benzo[b][1,4]oxazin-6-yl)pyrimidine-4-carboxamide]"
9,≥ 1000 nM,"COCCN(C)c1cc(C(=O)Nc2ccc3c(c2)OCCO3)nc(N2CCOCC2)n1 [Compound 200, N-(2,3-dihydrobenzo[b][1,4]dioxin-6-yl)-6-((2-methoxyethyl)(methyl)amino)-2-morpholinopyrimidine-4-carboxamide]"
10,≥ 1000 nM,"COCCN(C)c1cc(C(=O)Nc2nc(C(C)(C)C)cs2)nc(N2CCOCC2)n1 [Compound 201, N-(4-tert-butylthiazol-2-yl)-6-((2-methoxyethyl)(methyl)amino)-2-morpholinopyrimidine-4-carboxamide]"
11,≥ 1000 nM,"COCCN(C)c1cc(C(=O)Nc2ccc3nc(C)ccc3c2)nc(N2CCOCC2)n1 [Compound 202, 6-((2-methoxyethyl)(methyl)amino)-N-(2-methylquinolin-6-yl)-2-morpholinopyrimidine-4-carboxamide]"
12,≥ 1000 nM,"COCCN(C)c1cc(C(=O)Nc2nc3cc(C)c(C)cc3s2)nc(N2CCOCC2)n1 [Compound 203, N-(5,6-dimethylbenzo[d]thiazol-2-yl)-6-((2-methoxyethyl)(methyl)amino)-2-morpholinopyrimidine-4-carboxamide]"
13,≥ 1000 nM,"CCOc1cc(N2CCOCC2)c(OCC)cc1NC(=O)c1cc(N(C)CCOC)nc(N2CCOCC2)n1 [Compound 204, N-(2,5-diethoxy-4-morpholinophenyl)-6-((2-methoxyethyl)(methyl)amino)-2-morpholinopyrimidine-4-carboxamide]"
14,< 1000 nM,"COCCN(C)c1cc(C(=O)Nc2cccc(C(C)C)c2)nc(N2CCOCC2)n1 [Compound 205, N-(3-isopropylphenyl)-6-((2-methoxyethyl)(methyl)amino)-2-morpholinopyrimidine-4-carboxamide]"
